Data as given in patent US12678434B2, “Compositions and methods for modulating ACE2 receptor” (priority 2020, dated 2026).
Entries after “also recorded” stand apart in the source; their conditions may differ.

Key:
SARS-CoV-2 = assay: Medication use in COVID-19 positive and negative patients (retrospective propensity-score-matched study of hospitalized patients); assay type: in vivo, human; conditions: for SARS-CoV-2 Positive Test Result, percentage of patients (infection rate): drug use group of PS-matched sample, hospitalized patients Jan. 1, 2020 to Dec. 30, 2020; for difference in SARS-CoV-2 infection rates between drug use and no drug use: PS-matched groups, significance defined as p<0.05
Human recombinant ACE2 = biological target: T1, Human recombinant ACE2 (Homo sapiens, UniProt Q9BYF1); assay type: biochemical
T1 construct: purchased R&D systems, Minneapolis, USA
T1 sequence (Q9BYF1 18-740 limits assumed): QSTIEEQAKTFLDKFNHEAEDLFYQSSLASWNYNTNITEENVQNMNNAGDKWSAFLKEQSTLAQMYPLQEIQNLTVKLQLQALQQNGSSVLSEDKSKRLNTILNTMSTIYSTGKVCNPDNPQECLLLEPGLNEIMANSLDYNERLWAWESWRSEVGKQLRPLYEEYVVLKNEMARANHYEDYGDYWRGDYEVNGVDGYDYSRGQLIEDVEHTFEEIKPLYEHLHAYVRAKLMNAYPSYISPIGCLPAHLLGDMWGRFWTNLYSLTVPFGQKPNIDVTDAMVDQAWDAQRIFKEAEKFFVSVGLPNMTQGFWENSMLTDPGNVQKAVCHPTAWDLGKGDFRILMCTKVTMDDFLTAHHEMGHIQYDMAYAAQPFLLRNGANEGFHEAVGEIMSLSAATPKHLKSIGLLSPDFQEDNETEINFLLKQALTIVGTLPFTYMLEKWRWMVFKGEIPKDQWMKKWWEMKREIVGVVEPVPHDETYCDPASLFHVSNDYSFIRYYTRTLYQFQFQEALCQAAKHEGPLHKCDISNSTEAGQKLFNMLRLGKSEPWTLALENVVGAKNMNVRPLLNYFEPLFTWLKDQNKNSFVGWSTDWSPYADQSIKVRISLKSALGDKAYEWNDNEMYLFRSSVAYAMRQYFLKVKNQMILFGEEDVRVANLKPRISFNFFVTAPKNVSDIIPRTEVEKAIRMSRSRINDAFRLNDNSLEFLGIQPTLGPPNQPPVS

VERO-E6 cells = assay type: cell-based, monkey; conditions: 100 μM drug for 6 hours without FBS, then spike protein (30 ug) for 12 hours
[1] = SARS-CoV-2 positive patients, drug use group, PS-matched
[2] = patients who tested positive in PS-matched sample

SMILES: CN(C)CC/C=C1/c2ccccc2COc2ccc(CC(=O)O)cc21 [Olopatadine]
- SARS-CoV-2 Positive Test Result, percentage of patients (infection rate) (SARS-CoV-2): 18.75%

SMILES: CN/C(=N/CCSCc1nc[nH]c1C)NC#N [Cimetidine]
- SARS-CoV-2 Positive Test Result, percentage of patients (infection rate) (SARS-CoV-2): 35.71%

SMILES: CN(C)CCOC(c1ccccc1)c1ccccc1 [Diphenhydramine]
- SARS-CoV-2 Positive Test Result, percentage of patients (infection rate) (SARS-CoV-2): 12.8%
- concentration at transition point from inhibiting to activating the ACE2 receptor (Human recombinant ACE2): 1 µM
- spike protein in the cell lysate (western blot) (VERO-E6 cells): no spike protein

SMILES: CN1CCC[C@@H](n2nc(Cc3ccc(Cl)cc3)c3ccccc3c2=O)CC1 [R-Azelastine]
- concentration at transition point from inhibiting to activating the ACE2 receptor (Human recombinant ACE2): 1 µM
- spike protein in the cell lysate (western blot) (VERO-E6 cells): no spike protein

SMILES: OCCOCCN1CCN(C(c2ccccc2)c2ccc(Cl)cc2)CC1 (centres unmarked) [Hydroxyzine]
- difference in SARS-CoV-2 infection rates between drug use and no drug use (SARS-CoV-2): statistically significantly different
- difference in SARS-CoV-2 infection rates between drug use and no drug use (SARS-CoV-2; listed as hydroxyzine): significant difference; also recorded: lower infection rates
- ICU Admission, number of patients (SARS-CoV-2; [1]): 5
- ICU Admission, percentage of patients (SARS-CoV-2; [1]): 19.23%
- ICU LOS (length of stay), mean (standard deviation) (SARS-CoV-2; [1]): 22.4 (26.43)
- SARS-CoV-2 Positive Test Result, percentage of patients (infection rate) (SARS-CoV-2): 12.62%
- Odds Ratio for SARS-CoV-2 infection (SARS-CoV-2; multiple logistic regression model, drug use as covariate, PS-matched sample): 0.919
- difference in ICU admission rates between drug use and no drug use (SARS-CoV-2; [2]): not a significant difference
- difference in ICU length of stay between drug use and no drug use (SARS-CoV-2; [2]): not a significant difference
- fluorescence signal (ACE2 activity) upon further addition of drug (Human recombinant ACE2): increased
- spike protein in the cell lysate (western blot) (VERO-E6 cells): no spike protein

SMILES: CC(C)(C(=O)O)c1ccc(C(O)CCCN2CCC(C(O)(c3ccccc3)c3ccccc3)CC2)cc1 (centres unmarked) [Fexofenadine]
- SARS-CoV-2 Positive Test Result, percentage of patients (infection rate) (SARS-CoV-2): 18.92%

SMILES: CN(C)CCC(c1ccc(Br)cc1)c1ccccn1 (centres unmarked) [Brompheniramine]
- SARS-CoV-2 Positive Test Result, percentage of patients (infection rate) (SARS-CoV-2): 33.33%

SMILES: O=C(O)COCCN1CCN([C@H](c2ccccc2)c2ccc(Cl)cc2)CC1 [Levocetirizine, levocetirizine]
- SARS-CoV-2 Positive Test Result, percentage of patients (infection rate) (SARS-CoV-2): 15.38%
- fluorescence signal (ACE2 activity) upon further addition of drug (Human recombinant ACE2): further decreased
- spike protein in the cell lysate (western blot) (VERO-E6 cells): no spike protein

SMILES: CN1CCC[C@H](n2nc(Cc3ccc(Cl)cc3)c3ccccc3c2=O)CC1 [S-Azelastine]
- concentration at transition point from inhibiting to activating the ACE2 receptor (Human recombinant ACE2): 1 µM

SMILES: CN1CCCC(n2nc(Cc3ccc(Cl)cc3)c3ccccc3c2=O)CC1 (centres unmarked) [Azelastine]
- SARS-CoV-2 Positive Test Result, percentage of patients (infection rate) (SARS-CoV-2): 7.69%

SMILES: CCOC(=O)N1CCC(=C2c3ccc(Cl)cc3CCc3cccnc32)CC1 [Loratadine]
- SARS-CoV-2 Positive Test Result, percentage of patients (infection rate) (SARS-CoV-2): 18.65%

SMILES: O=C(O)COCCN1CCN(C(c2ccccc2)c2ccc(Cl)cc2)CC1 (centres unmarked) [Cetirizine]
- SARS-CoV-2 Positive Test Result, percentage of patients (infection rate) (SARS-CoV-2): 17.97%

SMILES: CN1CCC(=C2c3ccccc3CC(=O)c3sccc32)CC1 [Ketotifen]
- SARS-CoV-2 Positive Test Result, percentage of patients (infection rate) (SARS-CoV-2): 0 (0%)

SMILES: NC(N)=Nc1nc(CSCCC(N)=NS(N)(=O)=O)cs1 [Famotidine]
- SARS-CoV-2 Positive Test Result, percentage of patients (infection rate) (SARS-CoV-2): 18.87%

SMILES: CNC(=C[N+](=O)[O-])NCCSCc1ccc(CN(C)C)o1 [Ranitidine]
- SARS-CoV-2 Positive Test Result, percentage of patients (infection rate) (SARS-CoV-2): 15.29%

SMILES: O=C(O)COCCN1CCN([C@@H](c2ccccc2)c2ccc(Cl)cc2)CC1 [S-Cetirizine, dextrocetirizine]
- fluorescence signal (ACE2 activity) upon further addition of drug (Human recombinant ACE2): further decreased

SMILES: CN(C)CCC(c1ccc(Cl)cc1)c1ccccn1 (centres unmarked) [Chlorpheniramine]
- SARS-CoV-2 Positive Test Result, percentage of patients (infection rate) (SARS-CoV-2): 16.67%
